For 15 compounds, T/C results are on record in PubChem BioAssay AID256 (DTP/NCI, 2004).

This test concerns CD2F1 mice, L1210 leukemia ip, survival T/C. Briefly: NCI In Vivo Anticancer Drug Screen. Data for tumor model L1210 Leukemia (intraperitoneal) in CD2F1 (CDF1) mice. The following applies: higher = longer survival. In outline: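 Vehicle-treated tumor-bearing mice served as controls (C) for compound-treated mice (T). Reported figure is T divided by C.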
[1] abbreviates: endpoint: mean survival time, dose: 100.0 mg/kg/injection, schedule: Q04DX003 (ip), vehicle: saline with Tween-80.
Where [2] appears, read: endpoint: mean survival time, dose: 200.0 mg/kg/injection, schedule: Q04DX003 (ip), vehicle: saline with Tween-80.
The mark [3] stands for this setting: endpoint: mean survival time, dose: 400.0 mg/kg/injection, schedule: Q04DX003 (ip), vehicle: saline with Tween-80.

Where “and” joins values, the source holds several entries; their conditions need not be identical. Equal entries are not always repeated. Toxic doses and inconclusive results are not listed.

For `CCCCCCCCCCCCCCCCOc1ccc(C(=O)OC)cc1NS(=O)(=O)c1ccc(C(=O)O)cc1`, the T/C is 96 % of control (endpoint: mean survival time, dose: 100.0 mg/kg/injection, schedule: Q01DX001 (ip), vehicle: saline with Tween-80); 98 % of control (endpoint: mean survival time, dose: 100.0 mg/kg/injection, schedule: Q01DX009 (ip), vehicle: Klucel (hydroxypropylcellulose) (HPC)); 98 % of control (endpoint: mean survival time, dose: 200.0 mg/kg/injection, schedule: Q01DX001 (ip), vehicle: saline with Tween-80); 95 % of control (endpoint: mean survival time, dose: 200.0 mg/kg/injection, schedule: Q01DX009 (ip), vehicle: Klucel (hydroxypropylcellulose) (HPC)); 91 % of control (endpoint: mean survival time, dose: 400.0 mg/kg/injection, schedule: Q01DX001 (ip), vehicle: saline with Tween-80); 98 % of control (endpoint: mean survival time, dose: 400.0 mg/kg/injection, schedule: Q01DX009 (ip), vehicle: Klucel (hydroxypropylcellulose) (HPC)).

As to `CCOC1=C(C#N)CC2(CC1)c1ccccc1-c1ccccc12`, the T/C is, setting by setting: (endpoint: mean survival time, dose: 100.0 mg/kg/injection, schedule: Q04DX003 (ip), vehicle: Klucel (hydroxypropylcellulose) (HPC)) 96 % of control; (endpoint: mean survival time, dose: 200.0 mg/kg/injection, schedule: Q04DX003 (ip), vehicle: Klucel (hydroxypropylcellulose) (HPC)) 102 % of control; (endpoint: mean survival time, dose: 400.0 mg/kg/injection, schedule: Q04DX003 (ip), vehicle: Klucel (hydroxypropylcellulose) (HPC)) 101 % of control.

As to `CC(C)(C)[Si](C)(C)N1CCCOP1(=O)N(CCCl)CCCl` (stereo not drawn), the T/C (endpoint: mean survival time, dose: 15.6 mg/kg/injection, schedule: Q01DX001 (ip), vehicle: distilled water + Tween-80) is 98 % of control; the T/C (endpoint: mean survival time, dose: 31.3 mg/kg/injection, schedule: Q01DX001 (ip), vehicle: distilled water + Tween-80) is 102 % of control; the T/C (endpoint: mean survival time, dose: 62.5 mg/kg/injection, schedule: Q01DX001 (ip), vehicle: distilled water + Tween-80) is 96 % of control; the T/C (endpoint: mean survival time, dose: 125.0 mg/kg/injection, schedule: Q01DX001 (ip), vehicle: distilled water + Tween-80) is 108 % of control; the T/C (endpoint: mean survival time, dose: 250.0 mg/kg/injection, schedule: Q01DX001 (ip), vehicle: distilled water + Tween-80) is 101 % of control; the T/C (endpoint: mean survival time, dose: 500.0 mg/kg/injection, schedule: Q01DX001 (ip), vehicle: distilled water + Tween-80) was 104 % of control.

Turning to `CC(=O)OC(C(=O)NC(CC(C)C)C(=O)O)c1ccccc1` (stereo not drawn), the T/C is 98 % of control under setting [1], 95 % of control under setting [2] and 103 % of control under setting [3].

As for `CC(=O)SCCCCl`, the T/C is 97 % of control (endpoint: mean survival time, dose: 100.0 mg/kg/injection, schedule: Q01DX009 (ip), vehicle: saline) and 101 % of control (endpoint: mean survival time, dose: 200.0 mg/kg/injection, schedule: Q01DX009 (ip), vehicle: saline).

In the case of `[NH-]C(CCC(N)=O)C(=O)O.[NH-]C(CCC(N)=O)C(=O)O.[Pt+2]` (stereo not drawn), the T/C is, setting by setting: (endpoint: mean survival time, dose: 3.13 mg/kg/injection, schedule: Q04DX003 (ip), vehicle: distilled water + Tween-80) 103 % of control; (endpoint: mean survival time, dose: 6.25 mg/kg/injection, schedule: Q04DX003 (ip), vehicle: distilled water + Tween-80) 104 % of control; (endpoint: mean survival time, dose: 12.5 mg/kg/injection, schedule: Q04DX003 (ip), vehicle: distilled water + Tween-80) 110 % of control; (endpoint: mean survival time, dose: 25.0 mg/kg/injection, schedule: Q04DX003 (ip), vehicle: distilled water + Tween-80) 110 % of control; (endpoint: mean survival time, dose: 50.0 mg/kg/injection, schedule: Q04DX003 (ip), vehicle: distilled water + Tween-80) 95 % of control; (endpoint: mean survival time, dose: 100.0 mg/kg/injection, schedule: Q04DX003 (ip), vehicle: distilled water + Tween-80) 104 % of control. For the same compound, the T/C (endpoint: mean survival time, dose: 200.0 mg/kg/injection, schedule: Q04DX003 (ip), vehicle: distilled water + Tween-80) was 98 % of control.

In the case of `CC1SC(=S)NC1=O` (stereo not drawn), the T/C reads like this: (endpoint: mean survival time, dose: 100.0 mg/kg/injection, schedule: Q04DX003 (ip), vehicle: saline sonified) 93 % of control; (endpoint: mean survival time, dose: 200.0 mg/kg/injection, schedule: Q04DX003 (ip), vehicle: saline sonified) 113 % of control; (endpoint: mean survival time, dose: 400.0 mg/kg/injection, schedule: Q04DX003 (ip), vehicle: saline sonified) 96 % of control.

As for `O=C1Cc2cc3c(cc2C=C2CCCN12)OCO3`, the T/C is, setting by setting: (endpoint: mean survival time, dose: 25.0 mg/kg/injection, schedule: Q01DX009 (ip), vehicle: water) 103 % of control; (endpoint: mean survival time, dose: 50.0 mg/kg/injection, schedule: Q01DX009 (ip), vehicle: water) 97 % of control; (endpoint: mean survival time, dose: 100.0 mg/kg/injection, schedule: Q01DX009 (ip), vehicle: water) 103 % of control; (endpoint: mean survival time, dose: 400.0 mg/kg/injection, schedule: Q01DX009 (ip), vehicle: water) 113 % of control.

As to `ClC(Cl)c1nc2ccccc2[nH]1`, the T/C is 89 % of control (endpoint: mean survival time, dose: 6.25 mg/kg/injection, schedule: Q01DX001 (ip), vehicle: Klucel (hydroxypropylcellulose) (HPC)); 96 % of control (endpoint: mean survival time, dose: 12.5 mg/kg/injection, schedule: Q01DX001 (ip), vehicle: Klucel (hydroxypropylcellulose) (HPC)); 89 % of control (endpoint: mean survival time, dose: 25.0 mg/kg/injection, schedule: Q01DX001 (ip), vehicle: Klucel (hydroxypropylcellulose) (HPC)).

In the case of `Cc1cc(O)c(C)c(C)c1Cl`, the T/C is, setting by setting: (endpoint: mean survival time, dose: 50.0 mg/kg/injection, schedule: Q01DX009 (ip), vehicle: saline with Tween-80) 102 % of control; (endpoint: mean survival time, dose: 100.0 mg/kg/injection, schedule: Q01DX009 (ip), vehicle: saline with Tween-80) 104 % of control; under setting [1], 94 % of control; (endpoint: mean survival time, dose: 200.0 mg/kg/injection, schedule: Q01DX009 (ip), vehicle: saline with Tween-80) 91 % of control; under setting [2], 98 % of control.

With `[Cl][Pt+2]([Cl])([Cl])[Cl].[NH-]CC1(C[NH-])CCCC1`, the T/C runs as follows: (endpoint: median survival time, dose: 3.12 mg/kg/injection, schedule: Q04DX003 (ip), vehicle: saline) 171 % of control and 174 % of control; (endpoint: median survival time, dose: 6.25 mg/kg/injection, schedule: Q04DX003 (ip), vehicle: saline) 174 % of control and 217 % of control; (endpoint: median survival time, dose: 12.5 mg/kg/injection, schedule: Q04DX003 (ip), vehicle: saline) 280 % of control and 109 % of control; (endpoint: median survival time, dose: 25.0 mg/kg/injection, schedule: Q04DX003 (ip), vehicle: saline) 174 % of control.

Consider `O=P(NC1CCCCC1)(NC1CCCCC1)NC1CCCCC1`, for which the T/C is 93 % of control (endpoint: mean survival time, dose: 50.0 mg/kg/injection, schedule: Q04DX003 (ip), vehicle: saline with Tween-80); 90 % of control under setting [1]; 91 % of control under setting [2].

On to `COc1ccc2c(c1OC)CC1N(S(=O)(=O)c3ccc(C)cc3)CCC13c1ccccc1N(C(C)=O)C23` (stereo not drawn), for which the T/C by setting is: (endpoint: mean survival time, dose: 75.0 mg/kg/injection, schedule: Q01DX001 (ip), vehicle: other) 95 % of control; (endpoint: mean survival time, dose: 150.0 mg/kg/injection, schedule: Q01DX001 (ip), vehicle: other) 89 % of control and 95 % of control; (endpoint: mean survival time, dose: 300.0 mg/kg/injection, schedule: Q01DX001 (ip), vehicle: other) 97 % of control and 100 % of control.

As to `CCCCCCCCCCCCNC(=O)Nc1cccc(OC)c1`, the T/C is, setting by setting: (endpoint: mean survival time, dose: 100.0 mg/kg/injection, schedule: Q04DX002 (ip), vehicle: saline with Tween-80) 94 % of control; (endpoint: mean survival time, dose: 200.0 mg/kg/injection, schedule: Q04DX002 (ip), vehicle: saline with Tween-80) 94 % of control; (endpoint: mean survival time, dose: 400.0 mg/kg/injection, schedule: Q04DX002 (ip), vehicle: saline with Tween-80) 87 % of control.

With `CN(C)S(=O)(=O)C1(c2ccccc2)CCCC1`, the T/C runs as follows: under setting [1], 102 % of control; under setting [2], 105 % of control; under setting [3], 100 % of control.
